Tests used:
Syk = biological target: T1, Syk (Homo sapiens, UniProt P43405); experiment: Syk Biochemical Assay (ADP-Glo luminescence); conditions: ATP 40 μM final, 60 minutes, read-out: SYK Biochem IC50
T1 construct: purchased Promega
Experimental: Compounds were serially diluted in 100% DMSO, prior to an intermediate dilution in water. In a low volume white 384-well Proxiplate (Perkin Elmer), 1 μL of compound (0.4% final DMSO) was added to 3 μL of 10 ng/well Syk (Promega) and 0.2 mg/mL Poly-E4Y1 substrate (Promega) in assay buffer (final 40 mM Tris-HCl pH 7.4, 20 mM MgCl2, 0.1 mg/mL BSA) for 5 minutes. The reaction was initiated by addition of 1 μL of ATP (40 μM final) and allowed to proceed for 60 minutes at room temperature. The reaction was terminated by addition of 5 μL of ADP-Glo Reagent Mix (Promega) containing 1 mM MgCl2 for 45 minutes at room temperature. 10 μL of Kinase Detection Reagent (Promega) was added and incubated for 10 minutes at room temperature, before luminescence was measured using an Ensight Multimode Plate Reader (Perkin Elmer).

Ba/F3-Syk cells = biological target: T2, Ba/F3-Syk cells (Homo sapiens, UniProt P43405); experiment: Ba/F3 Proliferation Assay, Ba/F3-Syk cells (Resazurin); assay type: cell-based; conditions: 48-hour incubation
T2 construct: fused on or other part: Possible but unprinted fusion partner: TEL (ETV6), the usual partner for Ba/F3 lines transformed by Syk; Nothing on a partner is printed

[1] = system: Ba/F3-WT (wild type) cells; experiment: Ba/F3 Proliferation Assay, Ba/F3-WT (wild type) cells with mIL-3 (Resazurin); assay type: cell-based; conditions: Mus musculus, BaF3, 48 h, Ba/F3-WT cells +mIL-3, 48-hour incubation

| IC50 (Syk) [nM] | EC50 (Ba/F3-Syk cells) [nM] | EC50 [1] [nM] | Compound |
| --- | --- | --- | --- |
| 29.3 | 47.4 | 926 | CC(C)n1cc(-c2cc(OC[C@@H]3CNCCO3)c3cccnc3c2)cn1 [Compound 3.4, 5-{[(2S)-morpholin-2-yl]methoxy}-7-[1-(propan-2-yl)-1H-pyrazol-4-yl]quinoline] |
| 23.7 | 50.9 | 1970 | CC1(C)CNC[C@@H](COc2cc(-c3cnn(C4CC4)c3)cc3ncccc23)O1 [Compound 3.8, 7-(1-cyclopropyl-1H-pyrazol-4-yl)-5-{[(2S)-6,6-dimethylmorpholin-2-yl]methoxy}quinoline] |
| 57.1 | 54.5 | 6490 | CC(C)(C)n1cc(-c2cc(OC[C@@H]3CNCCCO3)c3cccnc3c2)cn1 [Compound 3.14, 7-(1-tert-butyl-1H-pyrazol-4-yl)-5-{[(2S)-1,4-oxazepan-2-yl]methoxy}quinoline] |
| 39.6 | 30.4 | 5840 | CC(C)(C)n1ccc(-c2cc(OC[C@@H]3CNCCO3)c3cccnc3c2)c1 [Compound 3.15, 7-(1-tert-butyl-1H-pyrrol-3-yl)-5-{[(2S)-morpholin-2-yl]methoxy}quinoline] |
| 43.7 | 51.8 | 2220 | Cn1ccc(-c2cc(OC[C@@H]3CNCC4(CC4)O3)c3cccnc3c2)c1 [Compound 3.17, 7-(1-methyl-1H-pyrrol-3-yl)-5-{[(5S)-4-oxa-7-azaspiro[2.5]octan-5-yl]methoxy}quinoline] |
| 51.1 | 99.1 | 6800 | Cn1cc(-c2cc(OC[C@@H]3CNCC4(CC4)O3)c3cccnc3c2)cn1 [Compound 3.19, 7-(1-methyl-1H-pyrazol-4-yl)-5-{[(5S)-4-oxa-7-azaspiro[2.5]octan-5-yl]methoxy}quinoline] |
| 12.6 | 12.1 | 941 | CC(C)n1cc(-c2cc(OC[C@@H]3CNC[C@@H](C)O3)c3cccnc3c2)cn1 [Compound 3.23, 5-{[(2S,6R)-6-methylmorpholin-2-yl]methoxy}-7-[1-(propan-2-yl)-1H-pyrazol-4-yl]quinoline] |
| 16.4 | 28.2 | 2260 | C[C@@H]1CNC[C@@H](COc2cc(-c3ccn(C)c3)cc3ncccc23)O1 [Compound 3.24, 7-(1-methyl-1H-pyrrol-3-yl)-5-{[(2S,6R)-6-methylmorpholin-2-yl]methoxy}quinoline] |
| 14.2 | 63 | 2140 | FC(F)Cn1ccc(-c2cc3ncccc3c(OC[C@@H]3CNCCO3)n2)c1 [Compound 6.5, 7-[1-(2,2-difluoroethyl)-1H-pyrrol-3-yl]-5-{[(2S)-morpholin-2-yl]methoxy}-1,6-naphthyridine] |
| 21.3 | 106 | 1980 | COCCn1ccc(-c2cc3ncccc3c(OC[C@@H]3CNCCO3)n2)c1 [Compound 6.10, 7-[1-(2-methoxyethyl)-1H-pyrrol-3-yl]-5-{[(2S)-morpholin-2-yl]methoxy}-1,6-naphthyridine] |
| 24.6 | 30.7 | 1680 | c1cnc2cc(-c3ccn(C4COC4)c3)nc(OC[C@@H]3CNCCO3)c2c1 [Compound 6.11, 5-{[(2S)-morpholin-2-yl]methoxy}-7-[1-(oxetan-3-yl)-1H-pyrrol-3-yl]-1,6-naphthyridine] |
| 14.6 | 21.8 | 2050 | CC1(C)CNC[C@@H](COc2nc(-c3ccn(CC(F)F)c3)cc3ncccc23)O1 [Compound 6.13, 7-[1-(2,2-difluoroethyl)-1H-pyrrol-3-yl]-5-{[(2S)-6,6-dimethylmorpholin-2-yl]methoxy}-1,6-naphthyridine] |
| 28.4 | 41.9 | 3120 | COCCn1ccc(-c2cc3ncccc3c(OC[C@@H]3CNCC(C)(C)O3)n2)c1 [Compound 6.16, 5-{[(2S)-6,6-dimethylmorpholin-2-yl]methoxy}-7-[1-(2-methoxyethyl)-1H-pyrrol-3-yl]-1,6-naphthyridine] |
| 9.1 | 32.1 | 2180 | CC1(C)CNC[C@@H](COc2nc(-c3cnn(CC(F)F)c3)cc3ncccc23)O1 [Compound 6.20, 7-[1-(2,2-difluoroethyl)-1H-pyrazol-4-yl]-5-{[(2S)-6,6-dimethylmorpholin-2-yl]methoxy}-1,6-naphthyridine] |
| 14.3 | 11.2 | 2090 | CC(C)n1ccc(-c2cc3ncccc3c(OC[C@@H]3CNCC4(CC4)O3)n2)c1 [Compound 6.22, 5-{[(5S)-4-oxa-7-azaspiro[2.5]octan-5-yl]methoxy}-7-[1-(propan-2-yl)-1-H-pyrrol-3-yl]-1,6-naphthyridine] |
| 55.9 | 28.4 | 2100 | COCCn1ccc(-c2cc3ncccc3c(OC[C@@H]3CNCC4(CC4)O3)n2)c1 [Compound 6.23, 7-[1-(2-methoxyethyl)-1H-pyrrol-3-yl]-5-{[(5S)-4-oxa-7-azaspiro[2.5]octan-5-yl]methoxy}-1,6-naphthyridine] |
| 20.5 | 8.6 | 1760 | CC1(C)CNC[C@@H](COc2nc(-c3ccn(C4COC4)c3)cc3ncccc23)O1 [Compound 6.25, 5-{[(2S)-6,6-dimethylmorpholin-2-yl]methoxy}-7-[1-(oxetan-3-yl)-1H-pyrrol-3-yl]-1,6-naphthyridine] |
| 14.1 | 27.7 | 1390 | C[C@@H](Oc1nc(-c2ccn(CC(F)F)c2)cc2ncccc12)[C@@H]1CNCCO1 [Compound 6.30, 7-[1-(2,2-difluoroethyl)-1H-pyrrol-3-yl]-5-[(1R)-1-[(2S)-morpholin-2-yl]ethoxy]-1,6-naphthyridine] |
| 17.6 | 28.5 | 1770 | CC1(C)CNC[C@@H](COc2cc(-c3ccn(CC(F)F)c3)cc3ncccc23)O1 [Compound 7.6, 7-[1-(2,2-difluoroethyl)-1H-pyrrol-3-yl]-5-{[(2S)-6,6-dimethylmorpholin-2-yl]methoxy}quinoline] |
| 36.7 | 44.7 | 3880 | CC(C)n1ccc(-c2cc(OC[C@@H]3CNCCCO3)c3cccnc3c2)c1 [Compound 7.10, 5-{[(2S)-1,4-oxazepan-2-yl]methoxy}-7-[1-(propan-2-yl)-1H-pyrrol-3-yl]quinoline] |
| 29.3 | 23.3 | 1560 | c1cnc2cc(-c3ccn(C4COC4)c3)cc(OC[C@@H]3CNCCO3)c2c1 [Compound 7.12, 5-{[(2S)-morpholin-2-yl]methoxy}-7-[1-(oxetan-3-yl)-1H-pyrrol-3-yl]quinoline] |
| 51.2 | 22.5 | 3210 | COCCn1ccc(-c2cc(OC[C@@H]3CNCC4(CC4)O3)c3cccnc3c2)c1 [Compound 7.14, 7-[1-(2-methoxyethyl)-1H-pyrrol-3-yl]-5-{[(5S)-4-oxa-7-azaspiro[2.5]octan-5-yl]methoxy}quinoline] |
| 5.7 | 5.6 | 833 | CC(C)n1ccc(-c2cc(OC[C@@H]3CNCC(C)(C)O3)c3nccnc3c2)c1 [Compound 8.3, 5-{[(2S)-6,6-dimethylmorpholin-2-yl]methoxy}-7-[1-(propan-2-yl)-1H-pyrrol-3-yl]quinoxaline] |
| 7.4 | 8.2 | 645 | COCCn1ccc(-c2cc(OC[C@@H]3CNCC(C)(C)O3)c3nccnc3c2)c1 [Compound 8.4, 5-{[(2S)-6,6-dimethylmorpholin-2-yl]methoxy}-7-[1-(2-methoxyethyl)-1H-pyrrol-3-yl]quinoxaline] |
| 5.2 | 4.5 | 735 | CC1(C)CNC[C@@H](COc2cc(-c3ccn(CC(F)F)c3)cc3nccnc23)O1 [Compound 8.5, 7-[1-(2,2-difluoroethyl)-1H-pyrrol-3-yl]-5-{[(2S)-6,6-dimethylmorpholin-2-yl]methoxy}quinoxaline] |
| 10.8 | 6.97 | 969 | CC(C)n1ccc(-c2cc(OC[C@@H]3CNCCO3)c3nccnc3c2)c1 [Compound 8.6, 5-{[(2S)-morpholin-2-yl]methoxy}-7-[1-(propan-2-yl)-1H-pyrrol-3-yl]quinoxaline] |
| 11.2 | 16.2 | 1270 | FC(F)Cn1ccc(-c2cc(OC[C@@H]3CNCCO3)c3nccnc3c2)c1 [Compound 8.8, 7-[1-(2,2-difluoroethyl)-1H-pyrrol-3-yl]-5-{[(2S)-morpholin-2-yl]methoxy}quinoxaline] |
| 11.8 | 10.7 | 1620 | CC(C)n1ccc(-c2cc(OC[C@@H]3CNCCCO3)c3nccnc3c2)c1 [Compound 8.10, 5-{[(2S)-1,4-oxazepan-2-yl]methoxy}-7-[1-(propan-2-yl)-1H-pyrrol-3-yl]quinoxaline] |
| 14.7 | 4.3 | 684 | CC(C)n1ccc(-c2cc(OC[C@@H]3CNCC4(CCC4)O3)c3nccnc3c2)c1 [Compound 8.17, 5-{[(6S)-5-oxa-8-azaspiro[3.5]nonan-6-yl]methoxy}-7-[1-(propan-2-yl)-1H-pyrrol-3-yl]quinoxaline] |
